Experiment: xn = mol fraction of the nth substance listed
Conditions: 308.15 K, 101 kPa

CCCCCCCCCCCCCCCC[n+]1ccccc1.[Cl-] + C[C@@H](O)[C@H](N)C(=O)O + O
Conditions | electrical conductivity [S/m]
x2 = 0, x1 = 5.4e-07 | 0.000222
x2 = 0, x1 = 9e-07 | 0.00029
x2 = 0, x1 = 1.62e-06 | 0.0004
x2 = 0, x1 = 2.34e-06 | 0.000465
x2 = 0, x1 = 2.88e-06 | 0.000581
x2 = 0, x1 = 3.78e-06 | 0.000705
x2 = 0, x1 = 4.5e-06 | 0.000794
x2 = 0, x1 = 5.59e-06 | 0.000937
x2 = 0, x1 = 6.85e-06 | 0.00106
x2 = 0, x1 = 7.93e-06 | 0.001222
x2 = 0, x1 = 9.01e-06 | 0.001438
x2 = 0, x1 = 1.009e-05 | 0.00159
x2 = 0, x1 = 1.117e-05 | 0.001701
x2 = 0, x1 = 1.442e-05 | 0.00209
x2 = 0, x1 = 1.55e-05 | 0.00219
x2 = 0, x1 = 1.766e-05 | 0.00237
x2 = 0, x1 = 1.982e-05 | 0.00248
x2 = 0, x1 = 2.18e-05 | 0.00259
x2 = 0, x1 = 2.397e-05 | 0.00264
x2 = 0, x1 = 2.595e-05 | 0.00278
x2 = 0, x1 = 2.991e-05 | 0.00297
x2 = 0, x1 = 3.406e-05 | 0.00314
x2 = 0, x1 = 3.784e-05 | 0.00328
x2 = 0, x1 = 4.162e-05 | 0.00342
x2 = 0, x1 = 4.541e-05 | 0.00356
x2 = 0, x1 = 4.919e-05 | 0.00369
x2 = 0, x1 = 5.099e-05 | 0.00375
x2 = 0, x1 = 5.982e-05 | 0.00403
x2 = 0, x1 = 6.829e-05 | 0.00432
x2 = 0, x1 = 7.64e-05 | 0.00454
x2 = 0, x1 = 8.415e-05 | 0.00477
x2 = 0, x1 = 9.171e-05 | 0.00497
x2 = 0, x1 = 9.892e-05 | 0.00516
x2 = 0, x1 = 0.0001058 | 0.00533
x2 = 0, x1 = 0.0001124 | 0.0055
x2 = 0, x1 = 0.0001189 | 0.00565
x2 = 2.018e-05, x1 = 5.4e-07 | 0.000282
x2 = 2.018e-05, x1 = 9e-07 | 0.00035
x2 = 2.018e-05, x1 = 1.62e-06 | 0.000431
x2 = 2.018e-05, x1 = 2.34e-06 | 0.000514
x2 = 2.018e-05, x1 = 2.88e-06 | 0.000652
x2 = 2.018e-05, x1 = 3.78e-06 | 0.000768
x2 = 2.018e-05, x1 = 4.51e-06 | 0.00084
x2 = 2.018e-05, x1 = 5.59e-06 | 0.001003
x2 = 2.018e-05, x1 = 6.67e-06 | 0.00115
x2 = 2.018e-05, x1 = 7.93e-06 | 0.00127
x2 = 2.018e-05, x1 = 9.01e-06 | 0.00139
x2 = 2.018e-05, x1 = 1.009e-05 | 0.001517
x2 = 2.018e-05, x1 = 1.117e-05 | 0.00165
x2 = 2.018e-05, x1 = 1.334e-05 | 0.00188
x2 = 2.018e-05, x1 = 1.55e-05 | 0.00214
x2 = 2.018e-05, x1 = 1.766e-05 | 0.0023
x2 = 2.018e-05, x1 = 1.964e-05 | 0.00249
x2 = 2.018e-05, x1 = 2.181e-05 | 0.00259
x2 = 2.018e-05, x1 = 2.379e-05 | 0.00271
x2 = 2.018e-05, x1 = 2.595e-05 | 0.00282
x2 = 2.018e-05, x1 = 2.992e-05 | 0.00299
x2 = 2.018e-05, x1 = 3.388e-05 | 0.00317
x2 = 2.018e-05, x1 = 3.766e-05 | 0.00332
x2 = 2.018e-05, x1 = 4.163e-05 | 0.00348
x2 = 2.018e-05, x1 = 4.523e-05 | 0.00361
x2 = 2.018e-05, x1 = 4.902e-05 | 0.00375
x2 = 2.018e-05, x1 = 5.082e-05 | 0.00383
x2 = 2.018e-05, x1 = 5.965e-05 | 0.00411
x2 = 2.018e-05, x1 = 6.812e-05 | 0.00438
x2 = 2.018e-05, x1 = 7.623e-05 | 0.0046
x2 = 2.018e-05, x1 = 8.398e-05 | 0.00483
x2 = 2.018e-05, x1 = 9.136e-05 | 0.00502
x2 = 2.018e-05, x1 = 9.857e-05 | 0.0052
x2 = 2.018e-05, x1 = 0.0001054 | 0.00538
x2 = 2.018e-05, x1 = 0.0001121 | 0.00553
x2 = 2.018e-05, x1 = 0.0001186 | 0.00568
x2 = 0.0002, x1 = 5.4e-07 | 0.000209
x2 = 0.0002, x1 = 9e-07 | 0.000279
x2 = 0.0002, x1 = 1.62e-06 | 0.000384
x2 = 0.0002, x1 = 2.35e-06 | 0.000481
x2 = 0.0002, x1 = 2.89e-06 | 0.000615
x2 = 0.0002, x1 = 3.79e-06 | 0.000744
x2 = 0.0002, x1 = 4.51e-06 | 0.000835
x2 = 0.0002, x1 = 5.59e-06 | 0.000986
x2 = 0.0002, x1 = 6.67e-06 | 0.001137
x2 = 0.0002, x1 = 7.94e-06 | 0.00127
x2 = 0.0002, x1 = 9.02e-06 | 0.001403
x2 = 0.0002, x1 = 1.01e-05 | 0.00155
x2 = 0.0002, x1 = 1.118e-05 | 0.00168
x2 = 0.0002, x1 = 1.335e-05 | 0.00196
x2 = 0.0002, x1 = 1.551e-05 | 0.00219
x2 = 0.0002, x1 = 1.75e-05 | 0.00237
x2 = 0.0002, x1 = 1.966e-05 | 0.00251
x2 = 0.0002, x1 = 2.183e-05 | 0.00264
x2 = 0.0002, x1 = 2.381e-05 | 0.00275
x2 = 0.0002, x1 = 2.58e-05 | 0.00286
x2 = 0.0002, x1 = 2.995e-05 | 0.00304
x2 = 0.0002, x1 = 3.391e-05 | 0.00321
x2 = 0.0002, x1 = 3.77e-05 | 0.00335
x2 = 0.0002, x1 = 4.149e-05 | 0.0035
x2 = 0.0002, x1 = 4.528e-05 | 0.00364
x2 = 0.0002, x1 = 4.889e-05 | 0.00376
x2 = 0.0002, x1 = 5.069e-05 | 0.00382
x2 = 0.0002, x1 = 5.953e-05 | 0.0041
x2 = 0.0002, x1 = 6.801e-05 | 0.00437
x2 = 0.0002, x1 = 7.612e-05 | 0.00458
x2 = 0.0002, x1 = 8.388e-05 | 0.00481
x2 = 0.0002, x1 = 9.146e-05 | 0.00499
x2 = 0.0002, x1 = 9.849e-05 | 0.00517
x2 = 0.0002, x1 = 0.0001055 | 0.00533
x2 = 0.0002, x1 = 0.000112 | 0.0055
x2 = 0.0002, x1 = 0.0001185 | 0.00565
x2 = 0.0009181, x1 = 2.391e-05 | 0.00276
x2 = 0.0009181, x1 = 2.608e-05 | 0.00285
x2 = 0.0009181, x1 = 3.007e-05 | 0.00304
x2 = 0.0009181, x1 = 3.405e-05 | 0.0032
x2 = 0.0009181, x1 = 3.804e-05 | 0.00337
x2 = 0.0009181, x1 = 4.184e-05 | 0.00351
x2 = 0.0009181, x1 = 4.564e-05 | 0.00365
x2 = 0.0009181, x1 = 4.926e-05 | 0.00379
x2 = 0.0009181, x1 = 5.108e-05 | 0.00385
x2 = 0.0009181, x1 = 5.995e-05 | 0.00413
x2 = 0.0009181, x1 = 6.846e-05 | 0.00439
x2 = 0.0009181, x1 = 7.661e-05 | 0.00463
x2 = 0.0009181, x1 = 8.44e-05 | 0.00485
x2 = 0.0009181, x1 = 9.2e-05 | 0.00505
x2 = 0.0009181, x1 = 9.907e-05 | 0.00523
x2 = 0.0009181, x1 = 0.0001061 | 0.0054
x2 = 0.0009181, x1 = 0.0001128 | 0.00556
x2 = 0.0009181, x1 = 0.0001192 | 0.00571
x2 = 0.0009182, x1 = 5.4e-07 | 0.000316
x2 = 0.0009182, x1 = 9.1e-07 | 0.000383
x2 = 0.0009182, x1 = 1.63e-06 | 0.00045
x2 = 0.0009182, x1 = 2.35e-06 | 0.000543
x2 = 0.0009182, x1 = 2.9e-06 | 0.000651
x2 = 0.0009182, x1 = 3.8e-06 | 0.000745
x2 = 0.0009182, x1 = 4.53e-06 | 0.000847
x2 = 0.0009182, x1 = 5.61e-06 | 0.00102
x2 = 0.0009182, x1 = 6.88e-06 | 0.001307
x2 = 0.0009182, x1 = 7.97e-06 | 0.001432
x2 = 0.0009182, x1 = 9.06e-06 | 0.00156
x2 = 0.0009182, x1 = 1.014e-05 | 0.00169
x2 = 0.0009182, x1 = 1.123e-05 | 0.001816
x2 = 0.0009182, x1 = 1.34e-05 | 0.00202
x2 = 0.0009182, x1 = 1.558e-05 | 0.00226
x2 = 0.0009182, x1 = 1.775e-05 | 0.0024
x2 = 0.0009182, x1 = 1.974e-05 | 0.00254
x2 = 0.0009182, x1 = 2.192e-05 | 0.00266

— the CheMixHub ionic liquid set
